# Values of other authors, collected in patent US20040047835A1, “Combinatorial drug therapy using polymer drug conjugates” (priority 2002, published 2004).
# Like-named read-outs stand apart in the source and are kept apart here.
# What was measured:
# [1] = system: mammary MCa-4 tumor; details: mammary MCa-4 tumor model; radiation preceded drug injection
# [2] = system: cell cycle
# [3] = system: tumor-bearing hosts; details: compared with free (unconjugated) paclitaxel
# [4] = system: ovarian Oca-1 carcinoma; details: equivalent paclitaxel dose of 60 mg/kg 24 h after tumor irradiation; versus radiation and paclitaxel
Compound,interaction of combined radiation and drug [1],effect on cell cycle [2],anti-tumor activity / efficacy [3],anti-tumor activity / efficacy ([3]; listed as PGTXL),"tumor growth delay, combined with radiation [4]"
"CC(=O)O[C@H]1C(=O)[C@@]2(C)[C@H]([C@H](OC(=O)c3ccccc3)[C@]3(O)C[C@H](OC(=O)[C@H](O)[C@@H](NC(=O)c4ccccc4)c4ccccc4)C(C)=C1C3(C)C)[C@]1(OC(C)=O)CO[C@@H]1C[C@@H]2O [paclitaxel, reference compound]",additive or sub-additive interaction,induced a G2/M arrest,–,–,–
poly(L-glutamic acid)-paclitaxel [PG-TXL],synergistic interaction,induced a G2/M arrest,increased efficacy,superior anti-tumor activity,significantly greater tumor growth delay
